Source: patent US20220409629A1, “BENZODIAZEPINE DERIVATIVES FOR TREATING A RESPIRATORY SYNCYTIAL VIRUS (RSV) INFECTION” (priority 2019, published 2022)

Assays:
[1] = Liver microsomal stability, rat; format: in vitro ADME; details: pH 7.4; rat liver microsomes, 0.5 mg/mL protein, 1 μM compound, NADPH; >80% remaining at 45 min denoted >140; read-out: Liver Microsomal Stability: t1/2 (min); rat
Method: (§1) Compounds were subjected to the following assays to investigate liver microsomal stability, permeability and plasma protein binding.
(§2) Pooled liver microsomes were purchased from a reputable commercial supplier and stored at −80° C. prior to use. Microsomes (final protein concentration 0.5 mg/mL), 0.1 M phosphate buffer pH 7.4 and test compound (final substrate concentration 1 μM; final DMSO concentration 0.25%) were pre-incubated at 37° C. prior to the addition of NADPH (final concentration 1 mM) to initiate the reaction. The final incubation volume was 50 μL. A control incubation was included for each compound tested where 0.1 M phosphate buffer pH 7.4 was added instead of NADPH (minus NADPH). Two control compounds were included with each species. All incubations were performed singularly for each test compound. Each compound was incubated for 0, 5, 15, 30 and 45 min. The control (minus NADPH) was incubated for 45 min only. The reactions were stopped by transferring incubate into acetonitrile at the appropriate time points, in a 1:3 ratio. The termination plates are centrifuged at 3,000 rpm for 20 min at 4° C. to precipitate the protein. Following protein precipitation, the sample supernatants were combined in cassettes of up to 4 compounds, internal standard added, and samples analysed by LC-MS/MS. From a plot of ln peak area ratio (compound peak area/internal standard peak area) against time, the gradient of the line was determined. Subsequently, half-life (t1/2) and intrinsic clearance (CLint) were calculated.

[2] = Liver microsomal stability, dog; format: in vitro ADME; details: pH 7.4; dog liver microsomes, 0.5 mg/mL protein, 1 μM compound, NADPH; >80% remaining at 45 min denoted >140; read-out: Liver Microsomal Stability: t1/2 (min); dog
Method: as §1, §2

[3] = Liver microsomal stability, human; format: in vitro ADME; details: pH 7.4; human liver microsomes, 0.5 mg/mL protein, 1 μM compound, NADPH; >80% remaining at 45 min denoted >140; read-out: Liver Microsomal Stability: t1/2 (min); human
Method: as §1, §2

RSV A2 = assay: RSV plaque reduction assay; format: cell-based, respiratory syncytial virus (RSV); details: human respiratory syncytial virus, HepG2; Hep-G2 cells, RSV A2, mean of at least two experiments
Method: Compounds were subjected to RSV plaque reduction assays according to the following protocol.
Hep-G2 cells (ECACC, 85011430) were passaged in flasks and seeded in 24-well plates in DMEM containing antibiotics and supplemented with 10% FBS. During inoculation and subsequent incubation, cells were cultured in DMEM containing 2% FBS. 100 plaque forming unit/well of RSV (RSV A2 ECACC, 0709161v) was mixed with eight serial dilutions of compound. Subsequently, 100 μL of the virus/compound mixtures was added to confluent Hep-G2 cell monolayers. The cells and virus/compound mixtures were incubated at 37° C. in a humidified 5% CO2 incubator for 2 h prior to removal of the inoculum and addition of 1 mL of overlay (DMEM containing 2% FBS and 0.8% CMC) containing compound dilutions. The cells and were incubated at 37° C. in a humidified 5% CO2 incubator for 2 days.
Cells were washed with PBS before adding 75/25% v/v EtOH/MeOH, for 3 min. Fixative was removed and plates were washed with PBS. A pre-titrated amount of the primary antibody was added in 200 μL PBS/2% milk powder, and plates incubated for 90 min at 37° C. The plates were washed 3 times with PBS/0.05% Tween20 before addition of rabbit anti-goat horse radish peroxidase in 200 μL PBS/2% milk powder, and incubated for 1 h at 37° C. Following three wash steps with PBS/0.05% Tween20, 200 μL ready-to-use TrueBlue was added and plates were incubated at rt for 10-15 min before washing with water. After removal of water, plates were air-dried in the dark.
Plates were scanned and analysed using the Immunospot S6 Macro analyser, which is equipped with BioSpot analysis software for counting immunostained plaques (virospots). Plaque counts were used to calculate % infection relative to the mean of the plaque count in the virus control wells for RSV. The EC50 value was calculated as 50% reduction in signal, respectively, by interpolation of inhibition curves fitted with a 4-parameter nonlinear regression with a variable slope in Dotmatics. Plaque EC50 and cell toxicity CC50 values are a mean of at least two experiments and figures are rounded to whole units.

Cell cytotoxicity CC50 = format: cell-based; details: human; mean of at least two experiments

SMILES	half-life [1] [min]	half-life [2] [min]	half-life [3] [min]	EC50 (RSV A2) [µM]	CC50 (Cell cytotoxicity CC50) [µM]
CCNc1ccc(-c2c(C(=O)N[C@H]3N=C(c4ccccc4)c4ccccc4NC3=O)cnn2C2CC2)c(F)n1 [Example 14, 1-Cyclopropyl-5-[6-(ethylamino)-2-fluoropyridin-3-yl]-N-[(3S)-2-oxo-5-phenyl-1,3-dihydro-1,4-benzodiazepin-3-yl]pyrazole-4-carboxamide]	37.9	59.3	93.7	0.095	> 25
CC(C)n1ncc(C(=O)N[C@H]2N=C(c3ccccc3)c3ccccc3NC2=O)c1-c1ccc(NC2CC2)nc1F [Example 16, 5-[6-(Cyclopropylamino)-2-fluoropyridin-3-yl]-N-[(3S)-2-oxo-5-phenyl-1,3-dihydro-1,4-benzodiazepin-3-yl]-1-propan-2-ylpyrazole-4-carboxamide]	72.7	22.2	50.6	0.05	> 25
CCn1ncc(C(=O)N[C@H]2N=C(c3ccccc3)c3cccc(F)c3NC2=O)c1-c1cc(C2CC2)cnc1F [Example 48, 5-(5-Cyclopropyl-2-fluoropyridin-3-yl)-1-ethyl-N-[(3S)-9-fluoro-2-oxo-5-phenyl-1,3-dihydro-1,4-benzodiazepin-3-yl]pyrazole-4-carboxamide]	118	> 140	355	0.092	> 25
CCc1ccc(-c2c(C(=O)N[C@H]3N=C(c4ccccc4)c4cccc(F)c4NC3=O)cnn2C2CCOCC2)c(F)c1 [Example 47, 5-(4-Ethyl-2-fluorophenyl)-1-(oxan-4-yl)-N-[(3S)-9-fluoro-2-oxo-5-phenyl-1,3-dihydro-1,4-benzodiazepin-3-yl]pyrazole-4-carboxamide]	33.1	81.4	105	0.03	> 25
CCNc1cnc(-c2c(C(=O)N[C@H]3N=C(c4ccccc4)c4ccccc4NC3=O)cnn2CC)c(F)c1 [Example 39, 1-Ethyl-5-[5-(ethylamino)-3-fluoropyridin-2-yl]-N-[(3S)-2-oxo-5-phenyl-1,3-dihydro-1,4-benzodiazepin-3-yl]pyrazole-4-carboxamide]	21.4	45.7	62	0.062	> 25
CCNc1cnc(-c2c(C(=O)N[C@H]3N=C(c4ccccc4)c4cccc(F)c4NC3=O)cnn2CC)c(F)c1 [Example 13, 1-Ethyl-5-[5-(ethylamino)-3-fluoropyridin-2-yl]-N-[(3S)-9-fluoro-2-oxo-5-phenyl-1,3-dihydro-1,4-benzodiazepin-3-yl]pyrazole-4-carboxamide]	9.6	35.6	42.9	0.068	> 25
O=C(N[C@H]1N=C(c2ccccc2)c2cccc(F)c2NC1=O)c1cn(CC(F)(F)F)nc1-c1ccc(NC2CC2)nc1F [Example 33, 3-[6-(Cyclopropylamino)-2-fluoropyridin-3-yl]-N-[(3S)-9-fluoro-2-oxo-5-phenyl-2,3-dihydro-1H-1,4-benzodiazepin-3-yl]-1-(2,2,2-trifluoroethyl)-1H-pyrazole-4-carboxamide]	56	81	80.3	0.08	> 25
CCn1ncc(C(=O)N[C@H]2N=C(c3ccccc3)c3cccc(F)c3NC2=O)c1-c1ncc(NC2CC2)cc1F [Example 12, 5-[5-(Cyclopropylamino)-3-fluoropyridin-2-yl]-1-ethyl-N-[(3S)-9-fluoro-2-oxo-5-phenyl-1,3-dihydro-1,4-benzodiazepin-3-yl]pyrazole-4-carboxamide]	51.1	68.5	193	0.045	> 25
CCNc1ccc(-c2c(C(=O)N[C@H]3N=C(c4ccccc4)c4ccccc4NC3=O)cnn2CC)c(F)n1 [Example 2, 1-Ethyl-5-[6-(ethylamino)-2-fluoropyridin-3-yl]-N-[(3S)-2-oxo-5-phenyl-1,3-dihydro-1,4-benzodiazepin-3-yl]pyrazole-4-carboxamide]	30.3	23.9	44.4	0.088	> 25
CCCNc1ccc(-c2nn(CC)cc2C(=O)N[C@H]2N=C(c3ccccc3)c3ccccc3NC2=O)c(F)n1 [Example 27, 1-Ethyl-3-[2-fluoro-6-(propylamino)pyridin-3-yl]-N-[(3S)-2-oxo-5-phenyl-1,3-dihydro-1,4-benzodiazepin-3-yl]pyrazole-4-carboxamide]	23.9	12.6	43.1	0.057	> 25
O=C(N[C@H]1N=C(c2ccccc2)c2cccc(F)c2NC1=O)c1cnn(C2CCOCC2)c1-c1ccc(C2CC2)nc1F [Example 49, 5-(6-Cyclopropyl-2-fluoropyridin-3-yl)-N-[(3S)-9-fluoro-2-oxo-5-phenyl-1,3-dihydro-1,4-benzodiazepin-3-yl]-1-(oxan-4-yl)pyrazole-4-carboxamide]	73.4	110	181	0.1	> 25
